Patent publication US10195242B2, “Therapeutic compounds” (Wintermute Biomedical, Inc., priority 2013, dated 2019)

How the values were obtained:
Format in all cases: cell-based
Conditions in all cases: twenty-four hours after inoculation, combination assay
[1] = tested on: methicillin-resistant Staphylococcus aureus (MRSA); experiment: In vitro growth inhibition on sheep blood agar (SBA) plates
Method: (§1) In vitro testing was conducted to measure the efficacy of WT13-12 at inhibiting the growth of clinically relevant bacteria. […] WT13-12 was streaked across half of a sheep blood agar (SBA) plate and allowed to dry for 15 minutes. The other side was streaked with the vehicle but not containing WT13-12. After drying, 50 μL of purified bacteria at 100,000 col/mL was streaked onto the control and treated sides of the sheep blood agar plates. After streaking, the plates were incubated at 37° C. for 48 hours. Growth was assessed at 24 and 48 hours post-inoculation. Percent inhibition was determined by measuring the treated side vs. the control side with the control side set at 100% growth.
(§2) Each component of WT13-12 was tested individually or in paired combination in the in vitro bacterial growth inhibition assay described above to determine the relative contribution of each component.

[2] = tested on: Streptococcus agalactiae (Group B beta strep); experiment: In vitro growth inhibition on SBA plates
Method: as §1, §2

[3] = tested on: Streptococcus pyogenes (Group A beta hemolytic strep); experiment: In vitro growth inhibition on SBA plates
Method: as §1, §2

N=C(N)NCCC[C@H](N)C(=O)O [L-Arginine]
growth inhibition of MRSA versus control [1]: no effect

C=CCCCCCCCCC(=O)O [undecylenic acid]
growth inhibition of S. agalactiae versus control [2]: significant effect | growth inhibition of S. pyogenes versus control [3]: significant inhibitory effects | growth inhibition of MRSA versus control [1]: no effect
